Data as given in the supplement of paper PMC10307832.

Experiments:
Assay in all cases: relative viability (nuclei count vs DMSO), 5 days (fraction); higher = more cells survive
VE-821 + Phenformin = compound: CS(=O)(=O)c1ccc(-c2cnc(N)c(C(=O)Nc3ccccc3)n2)cc1 [VE-821] + N=C(N)NC(=N)NCCc1ccccc1 [Phenformin] (partner 250 µM)
Method in brief: (§1)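 Relative viability divides the nuclei count in treated wells by that in vehicle wells. Lung cancer cell lines were seeded in 1536-well plates, dosed by pin tool the next day, and fixed and stained after 5 days in one step with final 0.05% Triton X-100, 1% formaldehyde and 1 ug/ml Hoechst. Dosing was a single drug or a fixed anchor-drug dose plus five library-drug doses (not always all listed) in √10 steps, and values are medians of duplicate plates imaged at 4×.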

Vismodegib + Luminespib = compound: CS(=O)(=O)c1ccc(C(=O)Nc2ccc(Cl)c(-c3ccccn3)c2)c(Cl)c1 [Vismodegib] + CCNC(=O)c1noc(-c2cc(C(C)C)c(O)cc2O)c1-c1ccc(CN2CCOCC2)cc1 [Luminespib] (partner 0.01 µM)
Method in brief: as §1

Vismodegib + Crizotinib = compound: CS(=O)(=O)c1ccc(C(=O)Nc2ccc(Cl)c(-c3ccccn3)c2)c(Cl)c1 [Vismodegib] + C[C@@H](Oc1cc(-c2cnn(C3CCNCC3)c2)cnc1N)c1c(Cl)ccc(F)c1Cl [Crizotinib] (partner 1 µM)
Method in brief: as §1

Ruxolitinib + Lapatinib = compound: N#CC[C@H](C1CCCC1)n1cc(-c2ncnc3[nH]ccc23)cn1 [Ruxolitinib] + CS(=O)(=O)CCNCc1ccc(-c2ccc3ncnc(Nc4ccc(OCc5cccc(F)c5)c(Cl)c4)c3c2)o1 [Lapatinib] (partner 2 µM)
Method in brief: as §1

Row | Cell Line | relative viability (VE-821 + Phenformin; first compound 0.08 µM) | relative viability (VE-821 + Phenformin; first compound 0.253 µM) | relative viability (VE-821 + Phenformin; first compound 0.8 µM) | relative viability (VE-821 + Phenformin; first compound 2.53 µM) | relative viability (VE-821 + Phenformin; first compound 8 µM) | relative viability (Vismodegib + Luminespib; first compound 0.08 µM) | relative viability (Vismodegib + Luminespib; first compound 0.8 µM) | relative viability (Vismodegib + Luminespib; first compound 2.53 µM) | relative viability (Vismodegib + Luminespib; first compound 8 µM) | relative viability (Vismodegib + Crizotinib; first compound 0.08 µM) | relative viability (Vismodegib + Crizotinib; first compound 0.253 µM) | relative viability (Vismodegib + Crizotinib; first compound 0.8 µM) | relative viability (Vismodegib + Crizotinib; first compound 2.53 µM) | relative viability (Vismodegib + Crizotinib; first compound 8 µM) | relative viability (Ruxolitinib + Lapatinib; first compound 0.08 µM) | relative viability (Ruxolitinib + Lapatinib; first compound 0.253 µM) | relative viability (Ruxolitinib + Lapatinib; first compound 0.8 µM) | relative viability (Ruxolitinib + Lapatinib; first compound 2.53 µM) | relative viability (Ruxolitinib + Lapatinib; first compound 8 µM) | relative viability (Vismodegib + Luminespib; first compound 0.253 µM)
1 | NCI-H23 | 0.812 | 0.743 | 0.785 | 0.844 | 0.479 | 0.25 | 0.198 | 0.258 | 0.227 | 0.489 | 0.54 | 0.597 | 0.553 | 0.537 | 1.03 | 1.27 | 1.2 | 0.775 | 0.852 | 
2 | NCI-H322M | 0.504 | 0.766 | 0.741 | 0.577 | 0.364 | 0.876 | 0.881 | 0.812 | 0.818 | 0.858 | 0.869 | 0.849 | 0.879 | 1.08 | 0.638 | 0.68 | 0.67 | 0.687 | 0.873 | 0.797
3 | NCI-H358 | 0.386 | 0.311 | 0.352 | 0.373 | 0.281 | 0.325 | 0.418 | 0.33 | 0.204 | 0.596 | 0.479 | 0.546 | 0.551 | 0.579 | 0.421 | 0.434 | 0.445 | 0.36 | 0.35 | 0.258
4 | NCI-H460 | 0.574 | 0.482 | 0.398 | 0.205 | 0.0832 | 0.0373 | 0.038 | 0.0291 | 0.0297 | 0.985 | 0.925 | 1.04 | 0.936 | 0.999 | 0.95 | 1.06 | 1.21 | 0.759 | 1.08 | 0.0299
5 | NCI-H520 | 0.575 | 0.613 | 0.375 | 0.818 | 0.381 | 0.24 | 0.198 | 0.207 | 0.212 | 0.854 | 0.662 | 0.714 | 0.679 | 0.896 |  | 0.815 | 1.04 | 0.588 | 0.671 | 0.225
6 | NCI-H596 | 0.78 | 0.635 | 0.735 | 0.871 | 0.631 | 1.04 | 1.15 | 1.05 | 1.02 | 0.986 | 0.966 | 0.929 | 1.02 | 0.965 | 1.18 | 1.07 | 1.22 | 1.03 | 1.07 | 0.96
7 | NCI-H647 | 0.556 | 0.532 | 0.454 | 0.533 | 0.211 | 0.505 | 0.219 | 0.125 | 0.181 | 1.07 | 1.13 | 1.11 | 0.969 | 1.07 | 1.11 | 1.09 | 1.19 | 0.651 | 1.02 | 0.227
8 | NCI-H650 | 0.448 | 0.429 | 0.45 | 0.494 | 0.468 | 0.843 | 0.638 | 0.802 | 0.865 | 0.61 | 0.702 | 0.687 | 0.809 | 0.865 |  | 0.925 | 1.05 | 0.842 | 0.667 | 0.791
9 | NCI-H661 | 0.282 | 0.255 | 0.272 | 0.286 | 0.311 | 0.945 | 0.934 | 0.876 | 0.889 | 0.961 | 0.94 | 1.05 | 0.93 | 1.01 | 0.518 | 0.564 | 0.614 | 0.452 | 0.606 | 0.909
10 | NCI-H727 | 0.503 | 0.552 | 0.547 | 0.537 | 0.385 | 0.428 | 0.322 | 0.359 | 0.422 | 0.733 | 0.771 | 0.576 | 0.938 | 0.857 | 0.904 | 1.03 | 1.09 | 0.777 | 0.821 | 0.518
11 | NCI-H838 | 0.605 | 0.454 | 0.528 | 0.599 | 0.385 | 0.247 | 0.33 | 0.409 | 0.331 | 0.816 | 0.787 | 0.885 | 0.821 | 0.848 | 1 | 0.803 | 0.873 | 0.446 | 0.406 | 0.271
12 | NCI-H1355 | 0.469 | 0.442 | 0.459 | 0.526 | 0.369 | 0.634 | 0.687 | 0.794 | 0.688 | 1.04 | 0.995 | 1.02 | 1.07 | 1.09 | 0.939 | 0.898 | 1.01 | 0.902 | 0.863 | 0.714
13 | NCI-H1437 | 0.318 | 0.319 | 0.329 | 0.306 | 0.274 | 0.956 | 1.1 | 1.09 | 1.07 | 0.876 | 0.912 | 0.902 | 0.934 | 0.931 | 0.976 | 0.883 | 0.926 | 0.695 | 0.57 | 1.13
14 | NCI-H1563 | 0.653 | 0.676 | 0.613 | 0.688 | 0.596 | 0.468 | 0.529 | 0.545 | 0.571 | 0.914 | 0.801 | 0.888 | 0.814 | 0.969 | 1.07 | 0.85 | 0.979 | 0.903 | 0.774 | 0.48
15 | NCI-H1650 | 0.496 | 0.422 | 0.363 | 0.3 | 0.21 | 0.214 | 0.212 | 0.178 | 0.18 | 0.884 | 0.904 | 0.97 | 0.932 | 0.918 |  | 0.826 | 1.05 | 0.761 | 0.89 | 0.192
16 | NCI-H1651 | 0.349 | 0.305 | 0.361 | 0.32 | 0.283 | 0.816 | 0.86 | 0.866 | 0.791 | 0.776 | 0.851 | 0.871 | 0.825 | 0.829 | 0.958 | 0.92 | 0.884 | 0.767 | 0.903 | 0.819
17 | NCI-H1666 | 0.578 | 0.536 | 0.602 | 0.6 | 0.535 | 0.985 | 1.15 | 0.999 | 1.06 | 0.917 | 0.849 | 1.06 | 1 | 0.948 | 0.584 | 0.629 | 0.738 | 0.844 | 0.656 | 0.986
